Data on 19 molecules can be found in patent US9926292B2, “Pyridinyl derivatives, pharmaceutical compositions and uses thereof” (Boehringer Ingelheim International GmbH, priority 2016, dated 2018).

One assay concerns the target T1, AOC1 (Homo sapiens, UniProt P19801).
T1 construct: purchased R&D Systems 8297-AO-010
T1 sequence (P19801 20-751): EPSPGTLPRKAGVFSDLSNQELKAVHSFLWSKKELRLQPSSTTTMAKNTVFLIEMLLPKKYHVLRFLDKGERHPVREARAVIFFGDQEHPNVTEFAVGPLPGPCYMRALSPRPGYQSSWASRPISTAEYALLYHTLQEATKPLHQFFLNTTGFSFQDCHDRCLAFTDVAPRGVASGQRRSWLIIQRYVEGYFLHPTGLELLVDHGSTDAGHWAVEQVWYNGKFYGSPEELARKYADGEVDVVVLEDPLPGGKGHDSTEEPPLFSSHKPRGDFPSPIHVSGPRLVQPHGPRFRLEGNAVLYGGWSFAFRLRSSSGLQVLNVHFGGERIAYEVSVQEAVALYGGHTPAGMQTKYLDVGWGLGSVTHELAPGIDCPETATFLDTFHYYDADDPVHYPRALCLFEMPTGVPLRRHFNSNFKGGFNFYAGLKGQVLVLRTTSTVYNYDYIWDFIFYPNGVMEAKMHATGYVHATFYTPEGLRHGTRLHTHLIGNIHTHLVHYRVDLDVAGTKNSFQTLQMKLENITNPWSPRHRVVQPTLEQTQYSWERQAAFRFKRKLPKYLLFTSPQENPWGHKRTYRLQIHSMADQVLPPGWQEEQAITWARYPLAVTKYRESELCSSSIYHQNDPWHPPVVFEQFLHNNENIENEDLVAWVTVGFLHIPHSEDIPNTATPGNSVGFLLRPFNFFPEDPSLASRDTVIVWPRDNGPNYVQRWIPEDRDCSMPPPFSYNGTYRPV
In words: AOC1 biochemical assay (Amplex Red). The note with it: Table 1; read-out: AOC1 IC50. An excerpt: The Amplex® Red Assay (available from Thermo Fisher Scientific) provides a sensitive method for the detection of H2O2 generated during enzymatic reactions like the amine oxidation catalyzed by AOC1.

Another assay addresses T2, AOC3 (Homo sapiens, UniProt Q16853).
T2 construct: expressed in transfected cells; host or cells: CHO cells
T2 sequence (Q16853 1-763): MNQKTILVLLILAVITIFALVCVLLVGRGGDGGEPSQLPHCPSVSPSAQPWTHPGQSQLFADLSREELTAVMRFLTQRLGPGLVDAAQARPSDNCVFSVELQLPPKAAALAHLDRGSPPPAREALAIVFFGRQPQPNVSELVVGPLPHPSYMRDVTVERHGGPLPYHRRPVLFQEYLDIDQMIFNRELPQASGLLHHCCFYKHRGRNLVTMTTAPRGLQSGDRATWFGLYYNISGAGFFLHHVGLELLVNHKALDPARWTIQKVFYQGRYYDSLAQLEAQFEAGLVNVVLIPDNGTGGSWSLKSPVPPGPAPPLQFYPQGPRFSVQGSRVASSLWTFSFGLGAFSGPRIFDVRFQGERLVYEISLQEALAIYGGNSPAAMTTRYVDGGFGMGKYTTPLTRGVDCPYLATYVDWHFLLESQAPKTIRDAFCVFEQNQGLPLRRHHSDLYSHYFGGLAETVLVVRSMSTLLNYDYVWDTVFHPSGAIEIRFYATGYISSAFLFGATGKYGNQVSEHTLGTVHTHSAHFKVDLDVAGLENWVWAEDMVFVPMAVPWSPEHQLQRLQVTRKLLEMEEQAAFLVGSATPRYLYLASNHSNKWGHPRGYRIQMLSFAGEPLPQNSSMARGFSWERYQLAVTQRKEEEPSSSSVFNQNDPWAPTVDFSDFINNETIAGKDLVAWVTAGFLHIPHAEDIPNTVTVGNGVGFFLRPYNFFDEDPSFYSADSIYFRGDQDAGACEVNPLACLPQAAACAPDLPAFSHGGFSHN
Description: AOC3 biochemical assay (MAO-Glo). The note with it: Table 1; read-out: AOC3 IC50. As to the method:
As substrate a derivate of the beetle luciferin ((4S)-4,5-dihydro-2-(6-hydroxybenzothiazolyl)-4-thiazole-carboxylic acid) is used, which is oxidized at a primary amine moiety. After a spontaneous elimination and a catalyzed esterase reaction, the turnover of the luciferine by the luciferase is recorded as a signal of AOC3 activity.
Recombinant CHO cells, overexpressing the human (1500 cells/well), mouse (1000 cells/well) or rat (500 cells/well) AOC3 enzyme are diluted in reaction buffer and added in a volume of 15 μL to the wells. After incubation for 20 minutes at 37° C., 2 μL of MAO substrate (dissolved in DMSO at 16 mM, adjusted to assay concentration in reaction buffer to a final assay concentration of 20 μM) is added and further incubated for 60 minutes at 37° C. The turnover of the substrate is determined by the addition of 20 μL of the detection-mix which was generated by the addition of reconstitution buffer with esterase (PROMEGA, #V1402) to the luciferine detection reagent (PROMEGA, #V1402).

As a reminder, the IC50 is the concentration that gives 50% inhibition. On to `N=C(N)NC(=O)OCc1cccc(-c2cnc(N3CCOCC3)nc2)n1` [Example 14], for which the IC50 at AOC1 was 1340 nM; at AOC3, 3 nM.
For the molecule `N=C(N)NC(=O)OCc1cccc(-c2cnc(O[C@H]3CCOC3)nc2)n1` [Example 15], the 50% inhibitory concentration (IC50) on AOC1 was 5190 nM; on AOC3, 8 nM.
For `COCCN(C)c1ncc(-c2cccc(COC(=O)NC(=N)N)n2)cn1` [Example 16] the same measures were 718 nM and 9 nM.
For `N=C(N)NC(=O)OCc1cccc(-c2cnc(OCC3(F)CC3)nc2)n1` [Example 17, [6-[2-[(1-fluorocyclopropyl)methoxy]pyrimidin-5-yl]-2-pyridyl]-methyl N-carbamimidoylcarbamate] the same measures were 3620 nM and 5 nM.
As to `CC(F)(F)COc1ccc(-c2cccc(COC(=O)NC(=N)N)n2)cn1` [Example 18], the IC50 at AOC1 came to 1400 nM; on AOC3 it was 3 nM.
Turning to `CC(F)(F)CNc1ncc(-c2cccc(COC(=O)NC(=N)N)n2)cn1` [Example 19], at AOC3, the IC50 amounted to 9 nM.
Consider `N#CC1(COc2ncc(-c3cccc(COC(=O)NC(=N)N)n3)cn2)CC1` [Example 21], for which the IC50 on AOC1 is 3190 nM; on AOC3, 4 nM.
For `N=C(N)NC(=O)OCc1cccc(-c2ccc(OCc3ccon3)nc2)n1` [Example 23] the same measures were 3820 nM and 2 nM.
On to `CN(c1ncc(-c2cccc(COC(=O)NC(=N)N)n2)cn1)C1CCOC1` (stereo not shown) [Example 25], for which the IC50 amounted to 483 nM at AOC1 and 3 nM at AOC3.
In the case of `N#CC1(COc2ncc(-c3cccc(COC(=O)NC(=N)N)n3)cn2)CCC1` [Example 27], the figures for the IC50 on AOC1 and on AOC3 were 3770 nM and 4 nM, respectively.
For `CC(Oc1ncc(-c2cccc(COC(=O)NC(=N)N)n2)cn1)c1ccon1` (stereo not shown) [Example 28], the IC50 at AOC1 amounted to 3290 nM; on AOC3, 15 nM.
On the same counts, the results for `N=C(N)NC(=O)OCc1cccc(-c2cnc(OCc3cncs3)nc2)n1` [Example 29] are 659 nM and 2 nM.
For `N=C(N)NC(=O)OCc1cccc(-c2cnc(OCc3cscn3)nc2)n1` [Example 30] the same measures were 978 nM and 3 nM.
For `N=C(N)NC(=O)OCc1cccc(-c2cnc(OCc3nccs3)nc2)n1` [Example 31] the same measures were 612 nM and 3 nM.
`CN(c1ncc(-c2cccc(COC(=O)NC(=N)N)n2)cn1)C1CCOCC1` [Example 32]: the figures for the IC50 at AOC1 and at AOC3 were 710 nM and 2 nM, respectively.
With `N=C(N)NC(=O)OCc1cccc(-c2cnc(OCC3CCOCC3)nc2)n1` [Example 33], the values for the IC50 on AOC1 and on AOC3 were 899 nM and 3 nM, respectively.
On the same counts, the results for `N=C(N)NC(=O)OCc1cccc(-c2cnc(OCc3cnns3)nc2)n1` [Example 34] are 503 nM and 2 nM.
With `N=C(N)NC(=O)OCc1cccc(-c2cnc(OCc3csnn3)nc2)n1` [Example 35], the values for the IC50 on AOC1 and on AOC3 were 1020 nM and 3 nM, respectively.
On the same counts, the results for `CC(=O)N1CCC(COc2ncc(-c3cccc(COC(=O)NC(=N)N)n3)cn2)CC1` [Example 37] are 227 nM and 3 nM.
